{"source": "patent US10155021B2", "about": "“Antimicrobial 4-oxoquinolizines” (Emergent Product Development Gaithersburg Inc., priority 2011, dated 2018)", "key": {"B. thailandensis": {"test_system": "B. thailandensis", "assay": "microbe, parasite or virus in culture", "assay_type": "cell-based, Burkholderia thailandensis", "settings": "for MIC90: Burkholderia thailandensis, read-out: MIC90 B. thailandensis"}, "[1]": {"test_system": "resistant strains of A. baumannii and one strain of Acinetobacter sp.", "assay": "MIC without and with sub-inhibitory polymyxin B, whole panel / MIC ranges (Example 4; also strains not listed separately)", "assay_type": "cell-based", "settings": "A. baumannii A14; ratio, PB 0.06 μg/ml; 1st experiment"}, "A. baumannii A387": {"test_system": "A. baumannii A387", "assay": "MIC without and with sub-inhibitory polymyxin B (Example 4)", "assay_type": "cell-based, Acinetobacter baumannii", "settings": "A. baumannii A387; +0.06 μg/ml polymyxin B; 1st experiment"}, "B. thailandensis E264": {"test_system": "B. thailandensis E264", "assay": "microbe, parasite or virus in culture", "assay_type": "cell-based, Burkholderia thailandensis", "settings": "Burkholderia thailandensis, E264, read-out: MIC B. thailandensis E264"}, "[2]": {"test_system": "S. aureus ATCC 43300 (MRSA, FQ-S)", "assay": "MIC, selected panel of Gram-positive and Gram-negative strains (Example 5)", "assay_type": "cell-based, Staphylococcus aureus", "settings": "Staphylococcus aureus, read-out: MIC S. aureus ATCC 43300 (MRSA, FQ-S)"}, "E. coli ATCC 25922": {"test_system": "E. coli ATCC 25922", "assay": "MIC, selected panel of Gram-positive and Gram-negative strains (Example 5)", "assay_type": "cell-based, Escherichia coli", "settings": "Escherichia coli, ATCC25922, read-out: MIC E. coli ATCC 25922"}, "A. baumannii ATCC 19606": {"test_system": "A. baumannii ATCC 19606", "assay": "MIC, selected panel of Gram-positive and Gram-negative strains (Example 5)", "assay_type": "cell-based, Acinetobacter baumannii", "settings": "Acinetobacter baumannii, ATCC19606, read-out: MIC A. baumannii ATCC 19606"}, "S. aureus ATCC 25923": {"test_system": "S. aureus ATCC 25923", "assay": "MIC, selected panel of Gram-positive and Gram-negative strains (Example 5)", "assay_type": "cell-based", "settings": "Staphylococcus aureus, ATCC25923, read-out: MIC S. aureus ATCC 25923"}, "P. aeruginosa ATCC 27853": {"test_system": "P. aeruginosa ATCC 27853", "assay": "MIC, selected panel of Gram-positive and Gram-negative strains (Example 5)", "assay_type": "cell-based", "settings": "Pseudomonas aeruginosa, ATCC27853, read-out: MIC P. aeruginosa ATCC 27853"}, "[3]": {"test_system": "S. aureus BAA-1556 (USA300-Type MRSA, FQ-R)", "assay": "MIC, selected panel of Gram-positive and Gram-negative strains (Example 5)", "assay_type": "cell-based, Staphylococcus aureus", "settings": "Staphylococcus aureus, read-out: MIC S. aureus BAA-1556 (USA300-Type MRSA, FQ-R)"}}}
{"compound": "Cc1c(-c2ccc(CN)o2)ccn2c(=O)c(C(=O)O)cc(C3CC3)c12", "note": "[Compound 12]", "values": [{"measurement": "MIC90", "setting": "B. thailandensis", "result": 0.39, "unit": "µg/mL"}]}
{"compound": "8-[(3S)-3-aminocyclopentyl]-1- cyclopropyl-7-fluoro-9-methyl- 4-oxo-quinolizine-3-carboxylic acid [Compound 10]", "values": [{"measurement": "MIC without PB/MIC + PB", "setting": "[1]", "result": 1}, {"measurement": "Dilutions improvement shift on B. thailandensis MIC90 (between pH 7 and pH 5)", "setting": "B. thailandensis; pH 7 versus pH 5", "result": "Yes, 2×"}, {"measurement": "MIC +0.06 μg/ml PB", "setting": "A. baumannii A387", "result": 0.5, "unit": "µg/mL"}]}
{"compound": "Cc1ccc(-c2ccn3c(=O)c(C(=O)O)cc(C4CC4)c3c2C)cc1", "note": "[Compound 15, 8-(p-tolyl)-1-cyclopropyl-9-methyl-4-oxo-quinolizine-3-carboxylic acid]", "values": [{"measurement": "MIC90", "setting": "B. thailandensis", "result": "< 0.048", "unit": "µg/mL"}]}
{"compound": "Cc1c(-c2ccc(N)c(CN)c2)ccn2c(=O)c(C(=O)[O-])cc(C3CC3)c12.[K+]", "note": "[Compound 76K salt, potassium 8-(4-amino-3-(aminomethyl)phenyl)-1-cyclopropyl-9-methyl-4-oxo-4H-quinolizine-3-carboxylate]", "values": [{"measurement": "MIC", "setting": "B. thailandensis E264", "result": 2, "unit": "µg/mL"}, {"measurement": "MIC", "setting": "[2]", "result": "0.008 to 0.016", "unit": "µg/mL"}, {"measurement": "MIC", "setting": "E. coli ATCC 25922", "result": 0.032, "unit": "µg/mL"}, {"measurement": "MIC", "setting": "A. baumannii ATCC 19606", "result": 0.25, "unit": "µg/mL"}, {"measurement": "MIC", "setting": "S. aureus ATCC 25923", "result": 0.016, "unit": "µg/mL"}, {"measurement": "MIC", "setting": "P. aeruginosa ATCC 27853", "result": 1, "unit": "µg/mL"}, {"measurement": "MIC", "setting": "[3]", "result": 0.25, "unit": "µg/mL"}]}
{"compound": "Cc1cc(-c2ccn3c(=O)c(C(=O)O)cc(C4CC4)c3c2C)c(Cl)cc1N", "note": "[Compound 11, 8-(2-chloro-4-amino-5-methyl-phenyl)-1-cyclopropyl-9-methyl-4-oxo-quinolizine-3-carboxylic acid]", "values": [{"measurement": "MIC90", "setting": "B. thailandensis", "result": "< 0.048", "unit": "µg/mL"}]}
{"compound": "Cc1c(-c2ccc(C#N)cc2)ccn2c(=O)c(C(=O)O)cc(C3CC3)c12", "note": "[Compound 14, 8-(4-cyanophenyl)-1-cyclopropyl-9-methyl-4-oxo-quinolizine-3-carboxylic acid]", "values": [{"measurement": "MIC90", "setting": "B. thailandensis", "result": "< 0.048", "unit": "µg/mL"}]}
